Earlier results in US5574044A, “Muscarine antagonists” (Merck & Co., Inc., priority 1994, dated 1996).

How the values were obtained:
[1] = system: smooth muscle (M3 type) receptor; settings: ordinarily called M3 type but variously called type M2 or M3
eye = settings: in vivo
pupil = settings: in vivo
ciliary muscle = settings: in vivo
[2] = in vivo

| Structure (SMILES) | selectivity for smooth muscle (M3 type) receptor [1] | axial elongation / enlargement of the eye (eye) | pupil dilation (pupil) | action on the ciliary muscle / ocular focusing (ciliary muscle) | sensitization assays [2] | muscarinic selectivity and duration (muscarinic receptors) |
| --- | --- | --- | --- | --- | --- | --- |
| C[N+]1(C)CCC(OC(=O)C(c2ccccc2)c2ccccc2)CC1 [Example 4-DAMP, 4-diphenylacetoxy-N-methylpiperadine methiodide] | relatively selective antagonist for smooth muscle |  |  |  |  |  |
| CN1CCc2cccc3c2[C@H]1Cc1ccc(O)c(O)c1-3 [apomorphine] |  | inhibit or actually prevent the axial enlargement of the eye |  |  |  |  |
| CN1[C@@H]2CC[C@H]1C[C@@H](OC(=O)C(CO)c1ccccc1)C2 (stereo partly drawn) [atropine] |  |  | causes mydriases (increase of pupil size) | its action on the ciliary muscle to inhibit ocular focusing impairs near visual work like reading | test positive in sensitization assays | long-acting non-specific antimuscarinic agent |
| CN1CCN(CC(=O)N2c3ccccc3C(=O)Nc3cccnc32)CC1 [pirenzepine] |  | inhibits axial elongation | far less effective at pupil dilation than atropine |  | test positive in sensitization assays |  |
